Like-named read-outs stand apart in the source and are kept apart here.
How the values were obtained:
topoisomerase I [1] = assay: Topoisomerase I mediated DNA cleavage (cleavable complex induction); type: biochemical; details: for dose response with respect to inducing DNA fragmentation: FIG. 10; for distribution of cleavage sites vs camptothecin or SN-38 / induction of cleavable complex formation: topoisomerase I; for induction of cleavable complex formation: 3'-32P-labeled oligonucleotide
Excerpt: (§1) Evaluation of the Relative Abilities of the Novel Polyamine Camptothecin Analogs to Induce Topoisomerase I Mediated DNA Single Strand Breaks. We have evaluated the abilities of the novel compounds of the present invention to inhibit the topoisomerase I enzyme. In these experiments the oligonucleotide was labeled at the 3'-end of the upper (scissile) strand with 32P-α-cordycepin and terminal transferase (Pommier, Y., Kohlhagen, G., Kohn, F., Leteurtre, F., Wani, M. C., and Wall, M. E. Proc. Natl. Acad. Sci. U.S.A. 92:8861-8865, 1995). Topoisomerase I (Top1) cleavage generates a 23mer that can be easily detected by electrophoresis and quantitated by Phosphorimager analysis. Tanizawa et al. (Tanizawa, A., Kohn, K. W., Kohlhagen, G., Leteurtre, F., and Pommier, Y. Biochemistry […]:7200-7206, 1995) have previously shown that camptothecin derivatives differ in the manner in which they stabilize the top1 cleavable complexes that they induce. The novel polyamine camptothecins of the present invention were compared in this assay. 0.35M NaCl was added to force top 1-mediated DNA religation and DNA cleavage was measured at various times after NaCl addition. FIG. 9 is a typical phosphoimager picture showing the timecourse of the effects of various camptothecins on the relaxation of DNA in the presence of topoisomerase I. Topoisomerase I-mediated cleavage generates DNA fragments that can be readily detected by electrophoresis and quantitated by phosphorimager analysis.
FIG. 10 is a phosphoimager picture showing the dose response of various camptothecin compounds described in the present invention on the relaxation of DNA in the presence of topoisomerase I. Topoisomerase I-mediated cleavage generates DNA fragments that can be readily detected by electrophoresis and quantitated by phosphorimager analysis as shown.
FIG. 11 contains a phosphoimager picture (bottom figure) showing the dose response effects of several of the novel polyamine camptothecins of the current invention on the relaxation of DNA in the presence of topoisomerase I. Topoisomerase I-mediated cleavage generates DNA fragments that can be readily detected by electrophoresis and quantitated by phosphorimager analysis (top figure).

[2] = Excited-state lifetime of camptothecin; type: physicochemical; details: 37° C
Protocol: We have examined the excited-state lifetime values of camptothecin in PBS, glycerol, and methanol at 37° C. The lifetime values were determined to be 4.7 ns, 3.8 ns, and 3.5 ns, respectively.

[3] = Fluorescence anisotropy titration: association with electroneutral DMPC vesicles; type: physicochemical; details: PBS buffer, pH 7.4, physiological temperature, DMPC
Protocol: (§2) Vesicle Preparation. Small unilamellar vesicle (SUV) suspensions were prepared the day of an experiment by the method of Burke et al. (T. G. Burke, A. K. Mishra, M. C. Wani, and M. E. Wall, Lipid Bilayer Partitioning and Stability of Camptothecin Drugs, Biochem., 32(20), 5352 (1993)). Briefly, stock lipid suspensions containing 200 mg/mL lipid in phosphate buffered saline (PBS, pH 7.4) were prepared by Vortex mixing for 5-10 min above the TM of the lipid. The lipid dispersions were then sonicated using a bath-type sonicator (Laboratory Supplies Co., Hicksville, N.Y.) for 3-4 h until they became optically clear. […] Each type of vesicle suspension was annealed for 30 min at 37° C. and then used in an experiment.
(§3) Fluorescence Instrumentation. Steady-state fluorescence measurements were obtained on a SLM Model 9850 spectrofluorometer with a thermostated cuvette compartment. This instrument was interfaced with an IBM PS/2 model 55 SX computer. Excitation and emission spectra were recorded with an excitation resolution of 8 nm and an emission resolution of 4 nm. In all cases spectra were corrected for background fluorescence and scatter from unlabeled lipids or from solvents by subtraction of the spectrum of a blank. Steady-state fluorescence intensity measurements were made in the absence of polarizers. Steady-state anisotropy (a) measurements were determined with the instrument in the "T-format" for simultaneous measurement of two polarized intensities. […] The anisotropy was calculated from a =(IVV -GIVH)/(IVV +2GIVH), where G=IHV /IHH and the subscripts refer to vertical and horizontal orientations of the excitation and emission polarizers, respectively.
(§4) Anisotropy measurements for camptothecins were conducted using exciting light in the range of 370 nm to 400 nm and long pass filters on each emission channel in order to isolate the drug's fluorescence signal from background scatter and/or residual fluorescence. […] The combination of exciting light and emission filters allowed us to adequately separate fluorescence from background signal. […]

[4] = cited from earlier work
[5] = Fluorescence anisotropy titration: association with negatively-charged DMPG vesicles; type: physicochemical; details: PBS buffer, pH 7.4, physiological temperature, DMPG
Protocol: as §2, §3, §4

[6] = aqueous medium; cited from earlier work
topoisomerase I [7] = assay: Reversal of topoisomerase I cleavable complexes after NaCl addition; type: biochemical; details: after 0.35M NaCl; for stability of cleavable complexes: relative to camptothecin and SN-38
Excerpt: as §1

CC[C@@]1(O)C(=O)OCc2c1cc1n(c2=O)Cc2c-1nc1ccccc1c2CCN=[N+]=[N-] [7-(2-azidoethyl)]
dose response with respect to inducing DNA fragmentation (topoisomerase I [1]): particularly good dose response

CC[C@@]1(O)C(=O)OCc2c1cc1n(c2=O)Cc2c-1nc1ccccc1c2CCCCCN=[N+]=[N-] [7-(5-azidopentyl)]
dose response with respect to inducing DNA fragmentation (topoisomerase I [1]): particularly good dose response

CC[C@@]1(O)C(=O)OCc2c1cc1n(c2=O)Cc2cc3ccccc3nc2-1 [Camptothecin]
average excited-state lifetime, membrane-bound drug ([2]; DMPC bilayers): 3.7 ns | excited-state lifetime ([2]; PBS): 4.7 ns | excited-state lifetime ([2]; glycerol): 3.8 ns | excited-state lifetime ([2]; methanol): 3.5 ns | Overall association constant KDMPC [3]: 100 M⁻¹ | enhancement in the anisotropy value upon binding to vesicles ([4]; vesicles of either DMPC or DMPG): 21 fold | Overall association constant KDMPG [5]: 100 M⁻¹ | half-life of lactone ring hydrolysis [6]: approximately 20 min

CCc1c2c(nc3ccc(O)cc13)-c1cc3c(c(=O)n1C2)COC(=O)[C@]3(O)CC [SN-38, 7-ethyl-10-hydroxycamptothecin, reference compound]
reversal of cleavable complexes (topoisomerase I [7]; compared with camptothecin): reversed more slowly than those induced by camptothecin

CC[C@@]1(O)C(=O)OCc2c1cc1n(c2=O)Cc2c-1nc1ccccc1c2CCCNC(=N)N [compound #8]
stability of cleavable complexes (topoisomerase I [7]): intermediate stabilities between camptothecin and SN-38 | distribution of cleavage sites vs camptothecin or SN-38 (topoisomerase I [1]): comparable to those generated by camptothecin or 7-ethyl-10-hydroxycamptothecin (SN-38) | induction of cleavable complex formation (topoisomerase I [1]): good inducers of cleavable complex formation

CC[C@@]1(O)C(=O)OCc2c1cc1n(c2=O)Cc2c-1nc1ccccc1c2CCNC(=N)N [compound #9]
stability of cleavable complexes (topoisomerase I [7]): intermediate stabilities between camptothecin and SN-38 | distribution of cleavage sites vs camptothecin or SN-38 (topoisomerase I [1]): comparable to those generated by camptothecin or 7-ethyl-10-hydroxycamptothecin (SN-38) | induction of cleavable complex formation (topoisomerase I [1]): good inducers of cleavable complex formation

CC[C@@]1(O)C(=O)OCc2c1cc1n(c2=O)Cc2cc3c(CN(C)C)c(O)ccc3nc2-1 [topotecan]
steady-state fluorescence anisotropy (a) ([4]; PBS): 0.008 | increase of anisotropy value vs PBS ([4]; glycerol): 40 fold | increase of anisotropy value vs PBS ([4]; octanol): 9 fold

Reference: patent US6291676A, “Water-soluble derivatives of camptothecin/homocamptothecin” (priority 2000, dated 2001)
